From paper PMC7504360 (International Journal of Molecular Sciences, 2020) come the findings set out here.

Each structure is given as a SMILES string. Square brackets hold non-standard residues; d marks the D form. Peptide text beside a SMILES is read from it.

The nature of data set [1]: LPS neutralization, limulus amebocyte lysate (LAL) assay. Type of data set: biochemical, Escherichia coli O111:B4. As to conditions: 50 μM peptide, 20 ng/mL LPS, 30 min at 37 °C, LAL chromogenic kit, 405 nm; triplicate. As for the experimental part:
The LPS-neutralizing activity of all peptides was determined using the Pierce LAL chromogenic endotoxin quantitation kit (ThermoFisher Scientific, MA, USA). All peptides including standard (Polymixin B) at varying concentrations (3.12, 6.25, 12.5, 25, and 50 μM in endotoxin-free water) were allowed to bind with 20 ng/mL of LPS in a 96-well plate for 30 min at 37 °C. To this, an equal volume (10 μL) of LAL reagent was added and incubated for 10 min at 37 °C and then 20μL of LAL chromogenic substrate was added. After 15 min incubation at 37 °C, the reaction was stopped by 25% acetic acid and the reduction in yellow color formation due to the substrate was measured at 405 nm on an absorbance microplate reader. The experiment was conducted in triplicate, and the changes in absorbance due to peptide-LPS interaction are indicated as percent LPS neutralization.

The subject of data set [2] is LPS-stimulated RAW264.7 cells. Nature of the data set: IL-6 release, ELISA. The class given is cell-based, mouse. As to conditions: 25 μM, 1 h pretreatment, LPS 20 ng/mL for 16 h. As for the experimental part:
(§1) The presence of nitrite in culture media strongly validates the indication of NO production which was assessed by Griess assay. Briefly, RAW264.7 cell (1 × 10^5) were seeded in s 96-well plate in triplicate. Peptides (1, 5, 25, and 50 μM) were pretreated 1 h and then stimulated with 20 ng/mL of LPS purified from E. coli O111:B4 (Sigma-Aldrich, St. Louis, MO, USA) for 16 h. After incubation, equal volumes of culture media and Griess reagent were added and color change was read at 540 nm. The concentration of nitrite content was assessed using a standard curve of sodium nitrite. In addition, release of inflammatory cytokines including TNF-α and IL-6 in the culture media was quantified using an enzyme-linked immunosorbent assays kit (ELISA; R&D Systems, Minneapolis, MN, USA) and the assay was performed according to the kit protocol. The assay was conducted in triplicate, and the concentrations of TNF-α and IL-6 were evaluated by measuring the absorbance at 450 nm using a microplate reader.
In general terms: ELISA stands for enzyme-linked immunosorbent assay.

For the next data set, the system named is chymotrypsin. Nature of the data set: Protease stability assay (antimicrobial activity after protease digestion). The class given is in vitro ADME. As to conditions: peptide–enzyme 10,000:1, PBS, 6 h at 37 °C preincubation, then E. coli and A. baumannii, 16 h at 37 °C, 600 nm, repeated three times. The procedure: (§2) For stability analysis, all Pro-peptides at their MICs were incubated with trypsin and chymotrypsin at the ratio of 10,000:1 (peptide–enzyme) in PBS for 6 h at 37 °C. After incubation, 100 μL of peptide-protease mixture was added to the 100 μL bacterial suspension (E. coli and A. baumannii, 2 × 10^5 CFU/mL) and further incubated for 16 h at 37 °C. Melittin was used as standard peptide, and bacterial suspension without peptide and protease served as control. The experiment was repeated three times, and the extent of bacterial growth was measured at 600 nm using a microplate reader.

In a further data set the test system is trypsin. Described as above. Type of data set: in vitro ADME. As to conditions: peptide–enzyme 10,000:1, PBS, 6 h at 37 °C preincubation, then E. coli and A. baumannii, 16 h at 37 °C, 600 nm, repeated three times. As for the experimental part: as §2
The subject of data set [3] is LPS-stimulated RAW264.7 cells. The data set can be described thus: Nitrite (NO) production, Griess assay. The class given is cell-based, mouse. As to conditions: 25 μM, 1 h pretreatment, LPS 20 ng/mL for 16 h. As for the experimental part:
as §1
(In general: Griess reagent forms a coloured azo dye with nitrite.)

Data set [4] relates to sheep red blood cells (sRBCs). Nature of the data set: Hemolytic activity. The class given is cell-based. The following applies: 100 μM peptide, 4% (v/v) sRBCs in PBS, 1 h at 37 °C, absorbance 405 nm; three measurements averaged. The procedure:
The hemolytic activity of all Pro-peptides were tested against sheep red blood cells (sRBCs) as described in previous reports. Fresh sRBCs were washed three times with phosphate-buffered saline (PBS) followed by centrifugation for 5 min at 2500 rpm at 4 °C. Peptides (0.2 to 100 μM) in PBS were incubated with 4% (v/v) sRBCs for 1 h at 37 °C. The contents were then centrifuged for 5 min at 1000 × g. The absorbance of the supernatant at 405 nm was used as a measure of hemolysis, and three times independent measurements were averaged. As a control, 100% hemolysis was obtained by treating sRBCs with melittin.

Another data set deals with MAPK and NF-κB. The data set can be described thus: Immunoblot of MAPK (JNK, ERK) phosphorylation and NF-κB nuclear translocation. Type of data set: cell-based, mouse. As to conditions: 20 μM peptide, LPS 50 ng/mL, RAW264.7 cells. The procedure: The protein content of all experimental groups of RAW264.7 cells in triplicate were extracted using radio immunoprecipitation buffer (RIPA) containing protease phosphatase inhibitor. The supernatant was collected by centrifugation (12,000× g) at 4 °C for 20 min and stored at −80 °C until further use. Similarly, cytoplasmic and nuclear fractionation was extracted using an NE-PER Nuclear and Cytoplasmic Extraction Reagents kit (ThermoFisher Scientific, MA, USA), according to the manufacturer’s protocol. Protein contents were quantified using a bicinchoninic acid (BCA) protein assay kit (Thermo Fisher Scientific Inc., MA, USA) and 30 μg (v/v) was electrophoresed by SDS-PAGE using a 10% (w/v) polyacrylamide resolving gel, electro-transferred to a PVDF membrane, and then blocked using 5% (w/v) non-fat milk. The membranes were incubated with primary antibodies (1:1000 dilution) at 4 °C overnight, followed by incubation with their respective secondary antibody for 1 h at room temperature. The antigen-antibody complexes were examined using the WestGlow^TM Chemiluminescent Substrate (Biomax Co., Ltd, Seoul, South Korea) under iBright™ CL1000 Imaging System (Thermo Fisher Scientific Inc., MA, USA). The densitometric analysis of protein signals were quantified using the Image J software (Version 1.52, National Institutes of Health, MD, USA).

As to `CC[C@@H](C)[C@@H](NC(=O)[C@@H](C)NC(=O)[C@@H](CC(C)C)NC(=O)[C@@H](Cc1c[nH]c2ccccc12)NC(=O)[C@@H](CC(C)C)NC(=O)[C@@H](CCCNC(=N)N)NC(=O)[C@H](N)CCCNC(=N)N)C(=O)N[C@H](Cc1c[nH]c2ccccc12)C(=O)N[C@H](CCCNC(=N)N)C(=O)N[C@H](CCCNC(=N)N)C(N)=O` [Pro10-1D] (H-[dR][dR][dL][dW][dL][dA][dI][dW][dR][dR]-NH2; N-terminus assumed), in data set [1], the “inhibition of the activation of LPS (LPS neutralization)” value is 58.45%. Moreover, in data set [2], the “inhibition of LPS-induced IL-6 level” value is on record as “effective inhibition”. In addition, the “protease resistance (retention of bactericidal activity)” value is “substantial protease resistance” with chymotrypsin, “retained its bactericidal activity” with chymotrypsin (listed as enantiomeric Pro10-1), “substantial protease resistance” in the data set with trypsin and “retained its bactericidal activity” in the data set on trypsin (listed as enantiomeric Pro10-1). In addition, in data set [3], the “inhibition of LPS-induced NO (nitrite) level” value is on record as “effective inhibition”. Moreover, the hemolysis result in data set [4] was “no hemolytic activity”. In addition, in the data set on MAPK and NF-κB, the “MAPK and NF-κB proteins” value is given as “downregulated”.
